The values below are quoted from earlier work in patent US20250009771A1, “PHARMACEUTICAL COMPOSITION FOR TREATING COLORECTAL CANCER, INCLUDING TUMOR-TARGETED LIPOSOMES CONTAINING PLATYCODIN D2” (INDUSTRY-UNIVERSITY COOPERATION FOUNDATION HANYANG …, priority 2023, published 2025).

The target of data set [1] is T1, BCL-XL (Homo sapiens, UniProt Q07817).
T1 construct: host or cells: adenomas and tumor organoids (endogenous protein)
Particulars: cited from earlier work.

The conditions of data set [2]: slightly acidic pH; cited from earlier work.

T1 sequence (Q07817 whole entry, species assumed): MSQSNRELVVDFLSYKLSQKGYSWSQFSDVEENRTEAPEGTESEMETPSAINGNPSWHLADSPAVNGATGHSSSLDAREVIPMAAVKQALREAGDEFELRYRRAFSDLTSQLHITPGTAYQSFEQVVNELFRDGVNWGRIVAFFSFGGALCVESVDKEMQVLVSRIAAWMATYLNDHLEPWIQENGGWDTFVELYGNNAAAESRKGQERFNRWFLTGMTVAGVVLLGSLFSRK

As for `CN(C)CC#Cc1ccc(OCCCc2sc(N3CCc4cccc(C(=O)Nc5nc6ccccc6s5)c4C3)nc2C(=O)O)c(F)c1` [A-1155463], in data set [1], the “clonogenic potential of adenomas and tumor organoids” value is given as “significantly impaired”.
Consider “GLAGLAGLLGLEGLLGLPLGLLEGLWLGLELEGN [ATRAM, pH-responsive acidity-triggered rational membrane peptide]”, for which, in data set [2], the “pK of insertion into the cell membrane” value is reported as 6.5.
